Marks after values point to notes of the source that are not given here.
Assays:
[1] = Precipitation stage: eluate (desorption) samples sparged with CO2, acid quantified again; format: physicochemical; conditions: for reduction of amino acid concentration in solution (in the eluate) after CO2 sparging: eluate samples with highest amino acid content, 0.425 M KOH in 93.5 wt. % ethanol; for reduction of organic acid concentration in solution after sparging with CO2: desorption samples of Example 1 (90 wt. % ethanol, 1M KOH)
Experimental: In the precipitation stage, the desorption samples were sparged with CO2, and the organic acids were quantified again the precipitation stage.
The eluate was separated into four samples of 7.5 mL each.

[2] = Precipitation with CO2 in solutions containing different amino acids, ethanol and water (table 3); format: physicochemical; conditions: for Concentration of amino acid in the liquid, Before precipitation / Concentration of amino acid in the liquid, After precipitation / Precipitate: 0.5M NaOH; for Concentration of amino acid in the liquid, After precipitation / Precipitate: after CO2; for Precipitate: includes sodium (bi)carbonate; for share of the amino acid precipitated when providing CO2: 80 wt. % ethanol
Excerpt: A variety of eluates, comprising different amino acids, and solvent concentrations were subjected to the precipitation stage as summarized in table 3: […]

[3] = 20 wt. % water, 80% wt. % ethanol
[4] = 37.6 wt. % water, 62.4 wt. % ethanol
[5] = 50 wt. % water, 50 wt. % ethanol
[6] = second 7.5 mL eluate sample, 90 wt. % methanol, 0.85M KOH

reduction of glutamic acid concentration in solution after CO2 sparging ([1]; 0.85 M KOH in 90 wt. % ethanol (AA4))	reduction of glutamic acid concentration in solution after CO2 sparging ([1]; 1M NaOH in 62.4 wt. % ethanol (AA5))	reduction of amino acid concentration in solution (in the eluate) after CO2 sparging [1]	Concentration of amino acid in the liquid, Before precipitation [2, 3]	Concentration of amino acid in the liquid, After precipitation [2, 3]	Precipitate [2, 3]	Concentration of amino acid in the liquid, Before precipitation [2, 4]	Concentration of amino acid in the liquid, After precipitation [2, 4]	Precipitate [2, 4]	behaviour of the amino acid when providing CO2 ([2]; 50 wt. % ethanol)	Concentration of amino acid in the liquid, Before precipitation [2, 5]	Concentration of amino acid in the liquid, After precipitation [2, 5]	Precipitate [2, 5]	behaviour of the amino acid when providing CO2 ([2]; 62.4% ethanol)	share of the amino acid precipitated when providing CO2 [2]	concentration in eluate sample after CO2 sparging [1, 6]	concentration in eluate sample before CO2 sparging [1, 6]	Structure (SMILES)	reduction of organic acid concentration in solution after sparging with CO2 [1]
approximately 74%	approximately 90%	approximately 68%	10.1* g/L	0.7 g/L	33.7 g/L	10.1 g/L	4.8 g/L	30.5 g/L									N[C@@H](CCC(=O)O)C(=O)O [Glutamic acid]	
		> 99%	10.3 g/L	9.1 g/L	20.7 g/L	9.6 g/L	9.7 g/L	18.1 g/L	remained in solution	10.2 g/L	10.2 g/L	12.6 g/L	remained in solution	less than 10%			CC(C)C[C@H](N)C(=O)O [Leucine, L-leucine]	
			10.2 g/L	4.1 g/L	27.4 g/L	10.2 g/L	9.6 g/L	21.2 g/L		10.3 g/L	9.6 g/L	15.2 g/L					CSCC[C@H](N)C(=O)O [Methionine]	
			10.3 g/L	3.6 g/L	27.4 g/L	10.2 g/L	9.1 g/L	20.6 g/L		10.3 g/L	10.3 g/L	16.9 g/L					N[C@@H](Cc1ccccc1)C(=O)O [Phenylalanine]	
			10.1* g/L	0.8 g/L	35.5 g/L	10.1 g/L	4.3 g/L	34.1 g/L	remained in solution	10.1 g/L	10.8 g/L	17.5 g/L	partially precipitated	over 90%			N[C@@H](CCC(=O)[O-])C(=O)[O-].[Na+].[Na+] [Sodium glutamate]	
															24.3 g/L	24.6 g/L	CC(=O)O [acetate]	
		~31%															C[C@H](N)C(=O)O [alanine, L-alanine]	
																	CCCCCC(=O)O [caproate, caproic acid]	(essentially) no reduction
																	CC(O)C(=O)O (stereo not drawn) [lactate, lactic acid]	(essentially) no reduction

Structure (SMILES)	reduction of glutamic acid concentration in solution after CO2 sparging ([1]; 0.85 M KOH in 90 wt. % ethanol (AA4))	reduction of glutamic acid concentration in solution after CO2 sparging ([1]; 1M NaOH in 62.4 wt. % ethanol (AA5))	reduction of amino acid concentration in solution (in the eluate) after CO2 sparging [1]	Concentration of amino acid in the liquid, Before precipitation [2, 3]	Concentration of amino acid in the liquid, After precipitation [2, 3]	Precipitate [2, 3]	Concentration of amino acid in the liquid, Before precipitation [2, 4]	Concentration of amino acid in the liquid, After precipitation [2, 4]	Precipitate [2, 4]	behaviour of the amino acid when providing CO2 ([2]; 50 wt. % ethanol)	Concentration of amino acid in the liquid, Before precipitation [2, 5]	Concentration of amino acid in the liquid, After precipitation [2, 5]	Precipitate [2, 5]	behaviour of the amino acid when providing CO2 ([2]; 62.4% ethanol)	share of the amino acid precipitated when providing CO2 [2]	concentration in eluate sample after CO2 sparging [1, 6]	concentration in eluate sample before CO2 sparging [1, 6]	reduction of organic acid concentration in solution after sparging with CO2 [1]
NCCCC[C@H](N)C(=O)O [Lysine]				10.3 g/L	3.4 g/L	32.5 g/L	10.4 g/L	10.3 g/L	22.0 g/L		10.3 g/L	10.6 g/L	25.9 g/L					

From patent publication US20240124387A1, “ACID RECOVERY” (GREENCOVERY B.V., priority 2021, published 2024)
